Experimental data from ChEMBL document CHEMBL3991601, “The target landscape of clinical kinase drugs” (Science, 2017).
Where a name gives a salt, the structure may show the parent alone. Calls of active or inactive are those of the source. Cut-off read from the data, not from the text of the source, for most assays here: actives have a measured Kd and inactives only a lower limit.

How the values were obtained:
[1] = target: AP2-associated protein kinase 1 (Homo sapiens, UniProt Q2M2I8)
[2] = target: T1, Peroxisomal acyl-coenzyme A oxidase 1 (Homo sapiens, UniProt Q15067)
T1 sequence (Q15067 whole entry): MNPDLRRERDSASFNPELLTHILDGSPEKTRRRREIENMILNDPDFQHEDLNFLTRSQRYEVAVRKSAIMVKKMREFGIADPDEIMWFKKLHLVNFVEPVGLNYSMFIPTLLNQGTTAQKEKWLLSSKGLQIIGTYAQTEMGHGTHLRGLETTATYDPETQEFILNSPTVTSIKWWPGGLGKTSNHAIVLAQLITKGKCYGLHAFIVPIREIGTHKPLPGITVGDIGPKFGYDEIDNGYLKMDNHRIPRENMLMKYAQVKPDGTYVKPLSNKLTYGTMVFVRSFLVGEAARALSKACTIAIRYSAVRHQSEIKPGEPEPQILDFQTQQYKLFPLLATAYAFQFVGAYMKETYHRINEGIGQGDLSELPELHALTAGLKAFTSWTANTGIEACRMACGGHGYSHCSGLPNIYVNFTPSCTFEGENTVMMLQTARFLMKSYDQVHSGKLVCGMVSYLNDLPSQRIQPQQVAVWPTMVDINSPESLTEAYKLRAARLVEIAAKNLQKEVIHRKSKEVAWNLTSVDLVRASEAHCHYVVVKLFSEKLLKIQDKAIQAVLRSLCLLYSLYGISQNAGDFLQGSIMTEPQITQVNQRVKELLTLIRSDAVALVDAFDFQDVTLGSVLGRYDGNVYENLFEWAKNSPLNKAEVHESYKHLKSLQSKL

Aurora kinase A = target: T2, Aurora kinase A (Homo sapiens, UniProt O14965)
T2 sequence (O14965 whole entry): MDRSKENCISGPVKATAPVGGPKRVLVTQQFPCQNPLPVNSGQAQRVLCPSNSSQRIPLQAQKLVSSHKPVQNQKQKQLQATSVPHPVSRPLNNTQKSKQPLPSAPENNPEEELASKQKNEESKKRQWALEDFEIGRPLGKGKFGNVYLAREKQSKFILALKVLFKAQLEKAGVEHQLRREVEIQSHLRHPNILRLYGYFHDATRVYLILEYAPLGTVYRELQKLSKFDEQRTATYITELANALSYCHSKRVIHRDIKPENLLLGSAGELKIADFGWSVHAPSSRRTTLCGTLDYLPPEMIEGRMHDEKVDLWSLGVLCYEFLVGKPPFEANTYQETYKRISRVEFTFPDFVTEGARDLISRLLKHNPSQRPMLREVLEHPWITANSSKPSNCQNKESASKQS

[3] = target: Cyclin-dependent kinase 12 (Homo sapiens, UniProt Q9NYV4)
[4] = target: ATP-dependent RNA helicase DDX3X (Homo sapiens, UniProt O00571)
[5] = target: T3, Phenylalanine--tRNA ligase beta subunit (Homo sapiens, UniProt Q9NSD9)
T3 sequence (Q9NSD9 whole entry): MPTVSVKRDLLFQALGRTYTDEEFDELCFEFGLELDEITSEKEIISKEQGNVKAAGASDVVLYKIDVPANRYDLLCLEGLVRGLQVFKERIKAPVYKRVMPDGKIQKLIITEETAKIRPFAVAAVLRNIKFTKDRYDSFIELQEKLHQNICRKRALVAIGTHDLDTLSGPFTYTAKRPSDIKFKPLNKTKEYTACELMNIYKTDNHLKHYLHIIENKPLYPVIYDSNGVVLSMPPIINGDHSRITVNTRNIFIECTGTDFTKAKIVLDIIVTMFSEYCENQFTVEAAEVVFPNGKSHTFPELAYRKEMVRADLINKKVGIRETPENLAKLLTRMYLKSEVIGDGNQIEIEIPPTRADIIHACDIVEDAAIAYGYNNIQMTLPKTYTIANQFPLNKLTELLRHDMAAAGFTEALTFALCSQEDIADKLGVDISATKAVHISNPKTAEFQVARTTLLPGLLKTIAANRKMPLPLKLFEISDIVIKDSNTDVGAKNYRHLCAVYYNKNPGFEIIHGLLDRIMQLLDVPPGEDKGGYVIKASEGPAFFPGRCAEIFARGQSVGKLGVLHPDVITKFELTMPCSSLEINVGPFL

[6] = target: T4, Serine/threonine-protein kinase Nek2 (Homo sapiens, UniProt P51955)
T4 sequence (P51955 whole entry): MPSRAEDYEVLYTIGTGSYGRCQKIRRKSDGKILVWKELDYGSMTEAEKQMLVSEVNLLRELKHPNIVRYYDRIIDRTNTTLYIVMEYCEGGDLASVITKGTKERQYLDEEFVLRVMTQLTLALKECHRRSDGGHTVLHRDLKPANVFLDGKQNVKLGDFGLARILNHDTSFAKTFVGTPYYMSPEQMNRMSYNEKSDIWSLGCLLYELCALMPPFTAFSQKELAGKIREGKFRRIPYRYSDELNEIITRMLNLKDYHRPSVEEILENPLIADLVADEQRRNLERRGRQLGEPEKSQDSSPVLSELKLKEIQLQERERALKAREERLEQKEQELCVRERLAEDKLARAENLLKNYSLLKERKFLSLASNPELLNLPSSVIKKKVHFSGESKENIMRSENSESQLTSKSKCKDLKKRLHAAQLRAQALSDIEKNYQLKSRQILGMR

[7] = target: Platelet-derived growth factor receptor beta (Homo sapiens, UniProt P09619)
[8] = target: Ribosomal protein S6 kinase alpha-1 (Homo sapiens, UniProt Q15418)
Note: in the data inactive means no Kd found up to 30 µM.

Chain of ATP-dependent RNA helicase DDX3X (O00571 whole entry): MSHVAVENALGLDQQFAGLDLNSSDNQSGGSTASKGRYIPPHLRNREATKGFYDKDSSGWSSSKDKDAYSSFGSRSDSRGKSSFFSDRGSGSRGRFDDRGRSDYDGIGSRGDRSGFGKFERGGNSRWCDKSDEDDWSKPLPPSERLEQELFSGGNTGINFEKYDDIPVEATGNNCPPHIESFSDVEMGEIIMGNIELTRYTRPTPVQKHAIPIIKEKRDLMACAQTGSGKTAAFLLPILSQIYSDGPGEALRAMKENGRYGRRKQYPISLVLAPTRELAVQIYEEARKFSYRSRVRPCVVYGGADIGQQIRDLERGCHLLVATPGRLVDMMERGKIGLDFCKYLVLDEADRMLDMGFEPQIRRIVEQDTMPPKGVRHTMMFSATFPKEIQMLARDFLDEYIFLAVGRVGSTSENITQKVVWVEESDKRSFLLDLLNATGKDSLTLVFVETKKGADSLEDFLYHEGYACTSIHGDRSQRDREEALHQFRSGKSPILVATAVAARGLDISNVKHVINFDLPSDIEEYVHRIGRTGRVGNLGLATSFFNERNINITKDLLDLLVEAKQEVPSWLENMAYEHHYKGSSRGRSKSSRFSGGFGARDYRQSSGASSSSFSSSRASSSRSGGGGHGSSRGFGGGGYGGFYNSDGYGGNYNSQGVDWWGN
Chain of Ribosomal protein S6 kinase alpha-1 (Q15418 whole entry): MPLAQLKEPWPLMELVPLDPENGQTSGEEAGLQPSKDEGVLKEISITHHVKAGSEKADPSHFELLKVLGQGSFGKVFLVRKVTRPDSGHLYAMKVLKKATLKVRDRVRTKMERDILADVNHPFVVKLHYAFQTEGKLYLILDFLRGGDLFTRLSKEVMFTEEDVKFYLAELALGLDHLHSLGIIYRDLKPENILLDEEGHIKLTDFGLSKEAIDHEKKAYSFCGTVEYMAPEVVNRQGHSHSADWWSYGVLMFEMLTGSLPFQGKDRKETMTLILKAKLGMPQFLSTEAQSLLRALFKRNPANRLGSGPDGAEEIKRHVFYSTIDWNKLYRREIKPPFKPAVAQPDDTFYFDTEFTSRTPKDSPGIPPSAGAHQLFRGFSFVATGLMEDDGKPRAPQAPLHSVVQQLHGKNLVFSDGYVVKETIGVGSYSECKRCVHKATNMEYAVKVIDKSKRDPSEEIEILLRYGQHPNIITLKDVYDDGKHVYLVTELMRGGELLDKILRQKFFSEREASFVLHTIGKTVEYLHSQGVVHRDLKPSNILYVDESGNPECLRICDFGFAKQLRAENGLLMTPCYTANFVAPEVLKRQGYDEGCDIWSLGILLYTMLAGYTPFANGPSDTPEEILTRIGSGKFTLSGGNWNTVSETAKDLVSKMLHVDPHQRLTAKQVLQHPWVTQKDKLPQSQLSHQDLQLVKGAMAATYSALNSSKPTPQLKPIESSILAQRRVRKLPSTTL
Chain of AP2-associated protein kinase 1 (Q2M2I8 whole entry): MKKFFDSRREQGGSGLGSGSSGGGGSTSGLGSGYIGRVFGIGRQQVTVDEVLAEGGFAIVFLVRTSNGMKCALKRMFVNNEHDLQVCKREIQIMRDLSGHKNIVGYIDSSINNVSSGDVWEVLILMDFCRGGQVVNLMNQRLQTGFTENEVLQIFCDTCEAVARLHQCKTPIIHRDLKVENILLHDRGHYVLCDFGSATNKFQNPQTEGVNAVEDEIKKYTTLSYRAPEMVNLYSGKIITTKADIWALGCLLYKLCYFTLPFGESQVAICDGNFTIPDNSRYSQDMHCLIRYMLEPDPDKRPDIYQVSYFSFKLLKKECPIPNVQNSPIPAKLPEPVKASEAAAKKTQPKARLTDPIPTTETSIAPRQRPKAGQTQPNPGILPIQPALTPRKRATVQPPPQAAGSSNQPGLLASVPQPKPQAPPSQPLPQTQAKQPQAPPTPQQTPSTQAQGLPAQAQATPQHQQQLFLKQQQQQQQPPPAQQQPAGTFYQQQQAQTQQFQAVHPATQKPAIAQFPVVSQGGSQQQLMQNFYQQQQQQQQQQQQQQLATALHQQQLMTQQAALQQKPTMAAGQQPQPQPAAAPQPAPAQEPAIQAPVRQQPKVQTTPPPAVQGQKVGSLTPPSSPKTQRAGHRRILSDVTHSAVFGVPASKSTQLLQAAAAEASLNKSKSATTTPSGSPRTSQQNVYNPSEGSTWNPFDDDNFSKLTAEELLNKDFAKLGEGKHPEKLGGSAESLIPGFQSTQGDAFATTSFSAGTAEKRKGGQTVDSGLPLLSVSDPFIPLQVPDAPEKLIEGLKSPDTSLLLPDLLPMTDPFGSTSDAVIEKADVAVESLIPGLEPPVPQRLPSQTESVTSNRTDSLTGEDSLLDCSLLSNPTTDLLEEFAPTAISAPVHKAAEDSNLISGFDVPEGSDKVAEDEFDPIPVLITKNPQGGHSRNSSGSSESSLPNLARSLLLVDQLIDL
Chain of Cyclin-dependent kinase 12 (Q9NYV4 whole entry): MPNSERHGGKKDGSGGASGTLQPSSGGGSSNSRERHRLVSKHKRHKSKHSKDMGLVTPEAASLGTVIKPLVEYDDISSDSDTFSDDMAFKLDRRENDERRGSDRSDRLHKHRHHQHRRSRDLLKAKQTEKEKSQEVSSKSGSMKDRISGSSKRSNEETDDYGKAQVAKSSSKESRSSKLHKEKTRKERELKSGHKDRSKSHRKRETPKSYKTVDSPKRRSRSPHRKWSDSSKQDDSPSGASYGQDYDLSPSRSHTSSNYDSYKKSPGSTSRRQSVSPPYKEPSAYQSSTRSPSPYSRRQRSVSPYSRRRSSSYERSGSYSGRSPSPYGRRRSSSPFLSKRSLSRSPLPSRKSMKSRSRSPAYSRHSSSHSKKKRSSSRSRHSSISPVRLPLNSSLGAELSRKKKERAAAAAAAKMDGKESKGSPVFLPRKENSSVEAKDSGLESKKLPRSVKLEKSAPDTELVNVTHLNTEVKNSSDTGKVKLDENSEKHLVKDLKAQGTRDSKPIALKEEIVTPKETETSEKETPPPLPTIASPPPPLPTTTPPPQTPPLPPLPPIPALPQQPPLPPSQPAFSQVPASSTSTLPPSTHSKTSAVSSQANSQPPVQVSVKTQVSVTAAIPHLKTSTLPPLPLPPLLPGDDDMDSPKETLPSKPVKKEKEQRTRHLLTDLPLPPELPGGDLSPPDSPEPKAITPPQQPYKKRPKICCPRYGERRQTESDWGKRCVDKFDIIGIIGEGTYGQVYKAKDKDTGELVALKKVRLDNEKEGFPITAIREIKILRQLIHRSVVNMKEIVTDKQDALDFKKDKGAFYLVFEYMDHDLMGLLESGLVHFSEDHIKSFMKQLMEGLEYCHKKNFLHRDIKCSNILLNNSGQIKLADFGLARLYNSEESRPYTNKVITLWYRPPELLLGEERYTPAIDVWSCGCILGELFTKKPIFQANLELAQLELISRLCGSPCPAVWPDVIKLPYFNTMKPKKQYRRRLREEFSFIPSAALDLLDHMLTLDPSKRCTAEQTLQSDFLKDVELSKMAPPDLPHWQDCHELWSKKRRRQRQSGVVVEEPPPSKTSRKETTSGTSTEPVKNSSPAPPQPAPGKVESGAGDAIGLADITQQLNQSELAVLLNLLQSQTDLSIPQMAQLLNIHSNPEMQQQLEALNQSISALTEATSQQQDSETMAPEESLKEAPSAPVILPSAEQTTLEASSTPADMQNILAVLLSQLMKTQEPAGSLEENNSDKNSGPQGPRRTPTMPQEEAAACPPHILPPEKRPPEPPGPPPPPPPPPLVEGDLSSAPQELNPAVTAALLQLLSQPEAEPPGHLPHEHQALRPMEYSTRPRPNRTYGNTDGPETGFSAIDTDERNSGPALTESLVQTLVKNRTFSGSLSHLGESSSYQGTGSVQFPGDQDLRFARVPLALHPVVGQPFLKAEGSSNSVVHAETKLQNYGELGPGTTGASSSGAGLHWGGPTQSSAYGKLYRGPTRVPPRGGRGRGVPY
Chain of Platelet-derived growth factor receptor beta (P09619 whole entry): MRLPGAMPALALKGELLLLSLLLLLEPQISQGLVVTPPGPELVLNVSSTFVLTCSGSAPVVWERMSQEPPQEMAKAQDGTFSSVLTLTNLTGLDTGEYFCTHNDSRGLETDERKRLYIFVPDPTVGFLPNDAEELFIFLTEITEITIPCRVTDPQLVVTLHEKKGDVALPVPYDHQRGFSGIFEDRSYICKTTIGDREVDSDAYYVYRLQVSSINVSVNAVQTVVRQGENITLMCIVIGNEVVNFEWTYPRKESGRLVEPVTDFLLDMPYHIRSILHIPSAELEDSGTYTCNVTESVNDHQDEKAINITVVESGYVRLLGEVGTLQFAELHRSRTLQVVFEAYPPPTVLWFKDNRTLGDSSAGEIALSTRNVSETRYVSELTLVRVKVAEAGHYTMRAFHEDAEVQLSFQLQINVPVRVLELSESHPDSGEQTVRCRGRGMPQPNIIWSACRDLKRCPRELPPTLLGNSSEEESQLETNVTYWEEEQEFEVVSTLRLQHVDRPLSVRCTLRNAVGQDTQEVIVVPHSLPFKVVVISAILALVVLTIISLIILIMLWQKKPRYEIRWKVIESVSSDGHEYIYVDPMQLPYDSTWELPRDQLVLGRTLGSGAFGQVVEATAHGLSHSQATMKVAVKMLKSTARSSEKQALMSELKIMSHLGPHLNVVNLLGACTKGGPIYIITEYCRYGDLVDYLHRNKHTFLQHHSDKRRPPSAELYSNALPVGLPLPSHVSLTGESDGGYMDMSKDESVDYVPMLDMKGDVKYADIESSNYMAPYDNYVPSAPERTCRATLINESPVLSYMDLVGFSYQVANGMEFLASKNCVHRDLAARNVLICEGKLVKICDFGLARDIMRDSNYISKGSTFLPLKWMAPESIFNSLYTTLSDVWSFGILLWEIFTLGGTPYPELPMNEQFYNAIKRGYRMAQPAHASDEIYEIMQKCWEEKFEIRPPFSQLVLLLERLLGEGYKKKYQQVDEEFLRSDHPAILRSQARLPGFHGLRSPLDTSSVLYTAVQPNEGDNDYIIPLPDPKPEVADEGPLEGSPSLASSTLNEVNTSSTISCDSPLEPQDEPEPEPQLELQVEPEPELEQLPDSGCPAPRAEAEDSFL

Kd [1] | Kd [2] | Kd (Aurora kinase A) | Kd [3] | Kd [4] | Kd [5] | Kd [6] | Kd [7] | Kd [8] | SMILES
22.2 µM (active) | > 30 µM (inactive) | > 30 µM (inactive) | > 30 µM (inactive) | > 30 µM (inactive) | > 30 µM (inactive) | > 30 µM (inactive) | > 30 µM (inactive) | > 30 µM (inactive) | C[C@@H](Oc1cc(C(=O)Nc2ccc(C(=O)N3CCN(C)CC3)cc2)nnc1N)c1c(Cl)ccc(F)c1Cl
> 30 µM (inactive) | > 30 µM (inactive) | > 30 µM (inactive) | > 30 µM (inactive) | > 30 µM (inactive) | > 30 µM (inactive) | > 30 µM (inactive) | > 30 µM (inactive) | > 30 µM (inactive) | C[C@H]1CNCCCN1S(=O)(=O)c1cccc2cncc(F)c12
> 30 µM (inactive) | > 30 µM (inactive) | > 30 µM (inactive) | > 30 µM (inactive) | > 30 µM (inactive) | > 30 µM (inactive) | > 30 µM (inactive) | > 30 µM (inactive) | 4.13 µM (active) | COCc1c(-c2ccc(NC(=O)Nc3cc(C(F)(F)F)ccc3F)c(F)c2)c2c(N)ncnn2c1CN1CCOCC1
> 30 µM (inactive) | > 30 µM (inactive) | > 30 µM (inactive) | > 30 µM (inactive) | > 30 µM (inactive) | > 30 µM (inactive) | > 30 µM (inactive) | > 30 µM (inactive) | > 30 µM (inactive) | Cc1nc(NC(=O)N2CCC[C@H]2C(N)=O)sc1-c1ccnc(C(C)(C)C(F)(F)F)c1 [ALPELISIB]
> 30 µM (inactive) | > 30 µM (inactive) | > 30 µM (inactive) | > 30 µM (inactive) | > 30 µM (inactive) | > 30 µM (inactive) | > 30 µM (inactive) | > 30 µM (inactive) | > 30 µM (inactive) | C=CC(=O)Nc1cc2c(Nc3ccc(F)c(Cl)c3)ncnc2cc1C#CC(C)(C)N1CCN(C)CC1 [AV-412 FREE BASE]
> 30 µM (inactive) | > 30 µM (inactive) | > 30 µM (inactive) | > 30 µM (inactive) | > 30 µM (inactive) | > 30 µM (inactive) | > 30 µM (inactive) | > 30 µM (inactive) | > 30 µM (inactive) | Cn1cnc2c(F)c(Nc3ccc(Br)cc3F)c(C(=O)NOCCO)cc21 [BINIMETINIB]
> 30 µM (inactive) | > 30 µM (inactive) | > 30 µM (inactive) | > 30 µM (inactive) | > 30 µM (inactive) | > 30 µM (inactive) | > 30 µM (inactive) | > 30 µM (inactive) | > 30 µM (inactive) | CCn1c(C(=O)N(C2CC2)C2CC2)cc2c3c(ncn3C)c(Nc3cc(C)n(C)n3)nc21 [BMS-911543]
> 30 µM (inactive) | > 30 µM (inactive) | > 30 µM (inactive) | > 30 µM (inactive) | > 30 µM (inactive) | > 30 µM (inactive) | > 30 µM (inactive) | > 30 µM (inactive) | 21.4 µM (active) | Cc1cc(Nc2ncc(Cl)c(Nc3ccccc3S(=O)(=O)C(C)C)n2)c(OC(C)C)cc1C1CCNCC1 [CERITINIB]
> 30 µM (inactive) | > 30 µM (inactive) | > 30 µM (inactive) | > 30 µM (inactive) | > 30 µM (inactive) | > 30 µM (inactive) | > 30 µM (inactive) | > 30 µM (inactive) | > 30 µM (inactive) | COc1c(OCCCN2CCOCC2)ccc2c1N=C(NC(=O)c1cnc(N)nc1)N1CCN=C21 [COPANLISIB]
> 30 µM (inactive) | > 30 µM (inactive) | > 30 µM (inactive) | > 30 µM (inactive) | > 30 µM (inactive) | > 30 µM (inactive) | > 30 µM (inactive) | > 30 µM (inactive) | > 30 µM (inactive) | C#Cc1cccc(Nc2ncnc3cc(OC)c(OCCCCCCC(=O)NO)cc23)c1 [CUDC-101]
0.001 µM (active) | > 30 µM (inactive) | > 30 µM (inactive) | > 30 µM (inactive) | > 30 µM (inactive) | > 30 µM (inactive) | > 30 µM (inactive) | 0.203 µM (active) | > 30 µM (inactive) | CCS(=O)(=O)N1CCN(c2ccc(Nc3ncc(C(N)=O)c(NC4CC4)n3)cc2)CC1 [Cerdulatinib Hydrochloride]
> 30 µM (inactive) | > 30 µM (inactive) | > 30 µM (inactive) | > 30 µM (inactive) | > 30 µM (inactive) | > 30 µM (inactive) | > 30 µM (inactive) | > 30 µM (inactive) | > 30 µM (inactive) | Cc1cccc(-c2nn3c(c2-c2ccnc4ccc(C(N)=O)cc24)CCC3)n1 [GALUNISERTIB]

SMILES | Kd [1] | Kd [2] | Kd (Aurora kinase A) | Kd [3] | Kd [4] | Kd [5] | Kd [6] | Kd [7] | Kd [8]
COc1cc([C@@H]2c3cc4c(cc3[C@H](O)[C@H]3COC(=O)[C@@H]23)OCO4)cc(OC)c1OC [AXL-1717] | > 30 µM (inactive) | > 30 µM (inactive) | > 30 µM (inactive) | > 30 µM (inactive) | > 30 µM (inactive) | > 30 µM (inactive) | > 30 µM (inactive) | > 30 µM (inactive) | > 30 µM (inactive)
NC(=O)Nc1cc(-c2cccc(F)c2)sc1C(=O)N[C@H]1CCCNC1 [AZD-7762] | 0.073 µM (active) | > 30 µM (inactive) | > 30 µM (inactive) | > 30 µM (inactive) | > 30 µM (inactive) | > 30 µM (inactive) | > 30 µM (inactive) | 0.552 µM (active) | > 30 µM (inactive)
O=C(Nc1nc2cccc(-c3ccc(CN4CCS(=O)(=O)CC4)cc3)n2n1)C1CC1 [FILGOTINIB] | 4.99 µM (active) | > 30 µM (inactive) | > 30 µM (inactive) | > 30 µM (inactive) | > 30 µM (inactive) | > 30 µM (inactive) | > 30 µM (inactive) | > 30 µM (inactive) | > 30 µM (inactive)
O=C(Nc1cc(C(F)(F)F)cc(C(F)(F)F)c1)c1cc(Cl)ccc1O [IMD-0354] | > 30 µM (inactive) | > 30 µM (inactive) | > 30 µM (inactive) | > 30 µM (inactive) | > 30 µM (inactive) | > 30 µM (inactive) | – | > 30 µM (inactive) | > 30 µM (inactive)
CCOc1cc2ncc(C#N)c(Nc3ccc(F)c(Cl)c3)c2cc1NC(=O)/C=C/CN(C)C [PELITINIB] | > 30 µM (inactive) | > 30 µM (inactive) | > 30 µM (inactive) | > 30 µM (inactive) | > 30 µM (inactive) | > 30 µM (inactive) | – | > 30 µM (inactive) | > 30 µM (inactive)
